Data taken from ChEMBL document CHEMBL6096738, “Optimization of Single Relaxin B-Chain Peptide Leads to the Identification of R2R01, a Potent, Long-Acting RXFP1 Agonist for Cardiovascular and Renal Diseases” (J Med Chem, 2025).
Starred links: 1 amine or outer side, 2 acyl side, 3 side chain; linkers in the order of their positions; H or OH if unused. Non-standard residues stand in square brackets, D forms with d. Residues, ends and D or L forms follow the SMILES beside them. Groups on a side chain read outwards from the residue. *: point of attachment. X2 = CCCCCCCCCCCCCCCC(=O)N[C@@H](CCC(=O)N[C@@H](CCC(=O)N[C@@H](CCC(=O)NCCCOCCOCCOCCCNC(=O)CCC(=O)NCCCOCCOCCOCCCNC(=O)CCC(=O)NCCCOCCOCCOCCCN*)C(=O)O)C(=O)O)C(=O)O; X1 = CCCCCCCCCCCCCCCC(=O)N[C@@H](CCC(=O)N[C@@H](CCC(=O)N[C@@H](CCC(=O)NCCCOCCOCCOCCCNC(=O)CCC(=O)NCCCOCCOCCOCCCN*)C(=O)O)C(=O)O)C(=O)O; γGlu = O=C(O)[C@H](CCC(=O)[*:2])N[*:1]; Palmitoyl = CCCCCCCCCCCCCCCC(=O)*; Suc = O=C(CCC(=O)[*:2])[*:1]; αMeK = C[C@](N)(CCCCN)C(=O)O; Nle = CCCC[C@H](N)C(=O)O; AEEA = NCCOCCOCC(=O)O; Aib = CC(C)(N)C(=O)O

Assays:
Relaxin receptor 1 [1] = biological target: T1, Relaxin receptor 1 (Homo sapiens, UniProt Q9HBX9); test: Agonist activity at human RXFP1 expressed in human OVCAR-5 cells assessed as intracellular cAMP accumulation incubated for 30 mins by HTRF assay; format: functional, cell-based
T1 sequence (Q9HBX9 whole entry): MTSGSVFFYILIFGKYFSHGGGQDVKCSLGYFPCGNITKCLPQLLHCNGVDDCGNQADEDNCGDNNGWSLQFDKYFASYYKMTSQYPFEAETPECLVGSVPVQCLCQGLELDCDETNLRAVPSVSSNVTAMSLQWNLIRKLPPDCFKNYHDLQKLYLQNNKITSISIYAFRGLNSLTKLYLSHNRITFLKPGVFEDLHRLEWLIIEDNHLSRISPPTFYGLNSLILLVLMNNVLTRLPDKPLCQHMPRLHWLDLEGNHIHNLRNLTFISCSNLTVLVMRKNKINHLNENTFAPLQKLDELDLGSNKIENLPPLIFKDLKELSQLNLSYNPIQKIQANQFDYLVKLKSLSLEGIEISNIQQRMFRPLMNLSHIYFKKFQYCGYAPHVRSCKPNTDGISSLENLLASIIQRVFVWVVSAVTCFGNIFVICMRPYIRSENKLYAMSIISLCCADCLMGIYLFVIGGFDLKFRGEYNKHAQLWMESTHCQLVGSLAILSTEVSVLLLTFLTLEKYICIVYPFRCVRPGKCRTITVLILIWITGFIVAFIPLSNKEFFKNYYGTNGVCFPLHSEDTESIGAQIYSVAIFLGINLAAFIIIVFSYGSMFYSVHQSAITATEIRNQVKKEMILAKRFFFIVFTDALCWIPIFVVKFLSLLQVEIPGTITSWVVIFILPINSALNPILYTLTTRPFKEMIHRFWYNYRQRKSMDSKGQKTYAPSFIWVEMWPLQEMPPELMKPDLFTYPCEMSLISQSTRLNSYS

[2] = biological target: T2, Relaxin receptor 1 (Homo sapiens) (UniProt Q9HBX9); test: Agonist activity at human RXFP1 expressed in human OVCAR-5 cells assessed as intracellular cAMP accumulation by measuring maximal efficacy incubated for 30 mins by HTRF assay relative to control; format: functional, cell-based; details: filed as agonist
T2 sequence (whole entry): T1 sequence (Q9HBX9 whole entry)

Relaxin receptor 1 [3] = biological target: T1, Relaxin receptor 1; test: Agonist activity at human RXFP1 expressed in 2%HSA treated human OVCAR-5 cells assessed as intracellular cAMP accumulation incubated for 30 mins with 2% HSA pretreated compound by HTRF assay; format: functional, cell-based
[4] = biological target: T2, Relaxin receptor 1 (Homo sapiens); test: Agonist activity at human RXFP1 expressed in 2%HSA treated human OVCAR-5 cells assessed as intracellular cAMP accumulation by measuring maximal efficacy incubated for 30 mins with 2% HSA pretreated compound by HTRF assay relative to control; format: functional, cell-based; details: filed as agonist
[5] = Half-life in male Sprague-Dawley rat at 1 mg/kg, iv measured after 198 hrs by LC-HRMS analysis; format: ADME, organism-based; details: in vivo
[6] = Drug metabolism in male Sprague-Dawley rat assessed as fatty acid chain oxidation mediated M+16 metabolite formation by measuring metabolite to parent compound AUC ratio at 3 mg/kg, sc measured after 198 hrs by LC-HRMS analysis; format: ADME, organism-based; details: in vivo
[7] = Half-life in male Beagle dog at 1 mg/kg, iv measured after 198 hrs by LC-HRMS analysis; format: ADME, organism-based, Canis lupus familiaris; details: in vivo
[8] = Drug metabolism in male Beagle dog assessed as fatty acid chain oxidation mediated M+16 metabolite formation by measuring metabolite to parent compound AUC ratio at 1 mg/kg, iv measured after 198 hrs by LC-HRMS analysis; format: ADME, organism-based, Canis lupus familiaris; details: in vivo
[9] = Half-life in female Gottingen pig at 1 mg/kg, iv measured after 198 hrs by LC-HRMS analysis; format: ADME, organism-based, Sus scrofa; details: in vivo
[10] = Drug metabolism in female Gottingen pig assessed as fatty acid chain oxidation mediated M+16 metabolite formation by measuring metabolite to parent compound AUC ratio at 1 mg/kg, iv measured after 198 hrs by LC-HRMS analysis; format: ADME, organism-based, Sus scrofa; details: in vivo
[11] = Induction of mast cell degranulation in human LAD2 cells assessed as beta-hexosaminidase release by measuring 4-methylumbelliferyl N-acetyl-beta-D-glucosaminide hydrolysis incubated for 30 mins by plate reader analysis; format: toxicity, cell-based; details: probe 4-methylumbelliferyl N-acetyl-beta-D-glucosaminide
[12] = Induction of mast cell degranulation in human LAD2 cells assessed as beta-hexosaminidase release by measuring maximal efficacy of 4-methylumbelliferyl N-acetyl-beta-D-glucosaminide hydrolysis at 33 uM incubated for 30 mins by plate reader analysis relative to control; format: toxicity, cell-based; details: probe 4-methylumbelliferyl N-acetyl-beta-D-glucosaminide
[13] = AUC (0 to 24 hrs) in male Sprague-Dawley rat at 1 mg/kg, iv measured after 198 hrs by LC-HRMS analysis; format: ADME, organism-based; details: in vivo
[14] = Cmax in male Sprague-Dawley rat at 3 mg/kg, sc measured after 198 hrs by LC-HRMS analysis; format: ADME, organism-based; details: in vivo
[15] = Bioavailability in male Sprague-Dawley rat at 3 mg/kg, sc measured after 198 hrs by LC-HRMS analysis; format: ADME, organism-based; details: in vivo
[16] = Bioavailability in female Gottingen pig at 1 mg/kg, sc measured after 198 hrs by LC-HRMS analysis; format: ADME, organism-based, Sus scrofa; details: in vivo
Rattus norvegicus [17] = test: Chronotropic effect in pithed male Sprague-Dawley rat assessed as increase in heart rate at 0.3 mg/kg, iv measured after 60 mins relative to control; format: functional; details: 1 h
[18] = Drug metabolism in male Sprague-Dawley rat assessed as fatty acid chain oxidation mediated M+16 metabolite formation by measuring metabolite to parent compound AUC ratio at 1 mg/kg, iv measured after 198 hrs by LC-HRMS analysis; format: ADME, organism-based; details: in vivo
Rattus norvegicus [19] = test: Chronotropic effect in telemetered male Sprague-Dawley rat assessed as increase in heart rate administered subcutaneously and measured after 48 hrs; format: functional, organism-based; details: dose 0.1-1 mg/kg, route sc

Structure (SMILES) | EC50 (Relaxin receptor 1 [1]) | Emax [2] | EC50 (Relaxin receptor 1 [3]) | Emax [4] | half-life [5] | Ratio AUC [6] | half-life [7] | Ratio AUC [8] | half-life [9] | Ratio AUC [10] | EC50 at 30 min [11] | Emax at 0.5 h, 33 µM [12] | AUC(0-t) at 198 h [13] | Cmax [14] | bioavailability [15] | bioavailability [16] | Activity (Rattus norvegicus [17]) | Ratio AUC [18] | Activity (Rattus norvegicus [19])
CCCCCCCCCCCCCCCC(=O)N[C@@H](CCC(=O)N[C@@H](CCC(=O)N[C@@H](CCC(=O)NCCOCCOCC(=O)NCCOCCOCC(=O)NCCOCCOCC(=O)NCCCC[C@H](NC(=O)[C@H](CCCCNC(C)=O)NC(=O)[C@H](CCCCN)NC(=O)[C@H](CCCNC(=N)N)NC(=O)C(C)(C)NC(=O)[C@H](CO)NC(=O)[C@H](Cc1c[nH]c2ccccc12)NC(=O)[C@@H](NC(=O)[C@H](CO)NC(=O)[C@H](CCCC)NC(=O)CNC(=O)[C@H](CCC(=O)O)NC(=O)C(C)(C)NC(=O)C(C)(C)NC(=O)[C@@H](NC(=O)[C@H](CCCCNC(C)=O)NC(=O)[C@H](C)NC(=O)[C@H](CCCNC(=N)N)NC(=O)[C@@H](NC(=O)[C@H](CCCCN)NC(=O)[C@H](CCC(=O)O)NC(=O)[C@H](CCCNC(=N)N)NC(=O)CNC(=O)[C@H](CCC(=O)O)NC(=O)[C@H](CC(C)C)NC(C)=O)C(C)C)[C@@H](C)CC)[C@@H](C)O)C(N)=O)C(=O)O)C(=O)O)C(=O)O (Ac-LEGREKVRAK(Ac)I[Aib][Aib]EG[Nle]STWS[Aib]RKK(Ac)K([AEEA-AEEA-AEEA-γGlu-γGlu-γGlu-Palmitoyl])-NH2) | 1 nM | 80% | 87 nM | 96% | 5.7 h | 0.025 | 4.4 h | 0.99 | 12.9 h | 0.7 | 3900 nM | 67.2% | – | – | – | – | – | – | –
CCCCCCCCCCCCCCCC(=O)N[C@@H](CCC(=O)N[C@@H](CCC(=O)N[C@@H](CCC(=O)NCCCOCCOCCOCCCNC(=O)CCC(=O)NCCCOCCOCCOCCCNC(=O)CCC(=O)NCCCC[C@H](NC(=O)CNC(=O)[C@H](CCC(=O)O)NC(=O)C(C)(C)NC(=O)C(C)(C)NC(=O)[C@@H](NC(=O)[C@H](CCCCNC(C)=O)NC(=O)[C@H](C)NC(=O)[C@H](CCCNC(=N)N)NC(=O)[C@@H](NC(=O)[C@H](CCCCN)NC(=O)[C@H](CCC(=O)O)NC(=O)[C@H](CCCNC(=N)N)NC(=O)CNC(=O)[C@H](CCC(=O)O)NC(=O)[C@H](CC(C)C)NC(C)=O)C(C)C)[C@@H](C)CC)C(=O)N[C@@H](CO)C(=O)N[C@H](C(=O)N[C@@H](Cc1c[nH]c2ccccc12)C(=O)N[C@@H](CO)C(=O)NC(C)(C)C(=O)N[C@@H](CCCNC(=N)N)C(=O)N[C@@H](CCCCN)C(=O)N[C@@H](CCCCNC(C)=O)C(N)=O)[C@@H](C)O)C(=O)O)C(=O)O)C(=O)O (Ac-LEGREKVRAK(Ac)I[Aib][Aib]EGK([Suc-X1])STWS[Aib]RKK(Ac)-NH2) | 1.28 nM | 95% | 145 nM | 81% | 8.7 h | – | 9.2 h | 0.33 | 27.2 h | 0.32 | 5500 nM | 58% | 19.5 µM·h | 2000 nM | 69% | 87% | 31.4% | – | –
CCCCCCCCCCCCCCCC(=O)N[C@@H](CCC(=O)N[C@@H](CCC(=O)N[C@@H](CCC(=O)NCCCOCCOCCOCCCNC(=O)CCC(=O)NCCCOCCOCCOCCCNC(=O)CCC(=O)NCCCOCCOCCOCCCNC(=O)CCC(=O)NCCCC[C@H](NC(=O)CNC(=O)[C@H](CCC(=O)O)NC(=O)C(C)(C)NC(=O)C(C)(C)NC(=O)[C@@H](NC(=O)[C@H](CCCCNC(C)=O)NC(=O)[C@H](C)NC(=O)[C@H](CCCNC(=N)N)NC(=O)[C@@H](NC(=O)[C@H](CCCCN)NC(=O)[C@H](CCC(=O)O)NC(=O)[C@H](CCCNC(=N)N)NC(=O)CNC(=O)[C@H](CCC(=O)O)NC(=O)[C@H](CC(C)C)NC(C)=O)C(C)C)[C@@H](C)CC)C(=O)N[C@@H](CO)C(=O)N[C@H](C(=O)N[C@@H](Cc1ccccc1)C(=O)N[C@@H](CO)C(=O)N[C@@](C)(CCCCN)C(=O)N[C@@H](CCCNC(=N)N)C(=O)N[C@@H](C)C(=O)N[C@@H](CCCCNC(C)=O)C(N)=O)[C@@H](C)O)C(=O)O)C(=O)O)C(=O)O (Ac-LEGREKVRAK(Ac)I[Aib][Aib]EGK([Suc-X2])STFS[αMeK]RAK(Ac)-NH2) | – | 97% | 26.5 nM | 86% | 7.8 h | – | 8.8 h | 0.11 | 22.3 h | 0.25 | > 33000 nM | 48% | – | – | – | 74% | 40.3% | < 0.01 | Dose-dependent-effect
